In patent US4127446A, “Process for producing antibiotics mimosamycin and chlorocarcins A, B and C” (priority 1975, dated 1978):
Converted amounts (≈) assume the structure as drawn.

Tested on: Mycobacterium tuberculosis SMR
Test: Antimicrobial activity of mimosamycin against tubercle bacilli (Table 4)
Type: cell-based
Details: 672 h

With COC1=C(C)C(=O)c2cc(=O)n(C)cc2C1=O [Mimosamycin] the MIC was 1.56 µg/mL (≈ 6.69 µM).
